Measured values: PMC6063448, “Antimicrobial activity of linear lipopeptides derived from BP100 towards plant pathogens” (PLoS ONE, 2018)

Columns and labels:
Experiment in all cases: MIC, growth inhibition in microtiter plates (TSB)
Type in all cases: cell-based
[1] = system: Xanthomonas arboricola pv. pruni CFBP5563; details: Xap, 25°C, 48 h, OD 600 nm, lowest concentration with no growth, given as interval of tested concentrations, three replicates, experiment repeated twice
Outline: (§1)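 Peptides, dissolved in water at 1 mM and filter-sterilized, were diluted and mixed with bacterial suspension (10^8 CFU mL^-1 before mixing) in TSB. Plates were incubated at 25°C with shaking, and OD600 was read hourly for 48 h. MIC was the lowest concentration with no growth at the end.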

[2] = system: Xanthomonas axonopodis pv. vesicatoria 2133–2; details: Xav, 25°C, 48 h, OD 600 nm, lowest concentration with no growth, given as interval of tested concentrations, three replicates, experiment repeated twice
Outline: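 Agar-grown cells in water (10^8 CFU mL^-1 stock suspension) + serially diluted peptide (1 mM water stock) in TSB; 25°C, 48 h, OD600 hourly; no-growth endpoint gives MIC.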

[3] = system: Pseudomonas syringae pv. actinidiae Psa3700.1.1; details: Psa, 25°C, 48 h, OD 600 nm, lowest concentration with no growth, given as interval of tested concentrations, three replicates, experiment repeated twice
Outline: as §1

[4] = system: Erwinia amylovora PMV6076; details: Ea, 25°C, 48 h, OD 600 nm, lowest concentration with no growth, given as interval of tested concentrations, three replicates, experiment repeated twice
Outline: as §1

[5] = system: Pseudomonas syringae pv. syringae EPS94; details: Pss, 25°C, 48 h, OD 600 nm, lowest concentration with no growth, given as interval of tested concentrations, three replicates, experiment repeated twice
Outline: as §1

[6] = system: Xanthomonas fragariae Xf349-9A; details: Xf, 25°C, 48 h, OD 600 nm, lowest concentration with no growth, given as interval of tested concentrations, three replicates, experiment repeated twice
Outline: as §1

SMILES	MIC [1] [µM]	MIC [2] [µM]	MIC [3] [µM]	MIC [4] [µM]	MIC [5] [µM]	MIC [6] [µM]
CC[C@H](C)[C@H](NC(=O)[C@H](CCCCN)NC(=O)[C@H](CCCCN)NC(=O)[C@H](Cc1ccccc1)NC(=O)[C@H](CC(C)C)NC(=O)[C@H](CCCCN)NC(=O)[C@@H](N)CCCCN)C(=O)N[C@@H](CC(C)C)C(=O)N[C@@H](CCCCN)C(=O)N[C@@H](Cc1ccc(O)cc1)C(=O)N[C@@H](CC(C)C)C(N)=O [BP100, H-Lys-Lys-Leu-Phe-Lys-Lys-Ile-Leu-Lys-Tyr-Leu-NH2]	1.6 to 3.1	3.1 to 6.2	1.6 to 3.1	3.1 to 6.2	3.1 to 6.2	3.1 to 6.2
CCCCCC(=O)NCCCC[C@H](NC(=O)[C@H](CC(C)C)NC(=O)[C@H](CCCCN)NC(=O)[C@H](CCCCN)NC(C)=O)C(=O)N[C@@H](CCCCN)C(=O)N[C@@H](CCCCN)C(=O)N[C@H](C(=O)N[C@@H](CC(C)C)C(=O)N[C@@H](CCCCN)C(=O)N[C@@H](Cc1ccc(O)cc1)C(=O)N[C@@H](CC(C)C)C(N)=O)[C@@H](C)CC [BP371, Ac-KKLK(COC5H11)KKILKYL-NH2]	3.1 to 6.2	3.1 to 6.2	3.1 to 6.2	3.1 to 6.2	3.1 to 6.2	3.1 to 6.2
CCCCCC(=O)NCCCC[C@H](NC(=O)[C@H](CCCCN)NC(=O)[C@H](CCCCN)NC(=O)[C@H](Cc1ccccc1)NC(=O)[C@H](CC(C)C)NC(=O)[C@H](CCCCN)NC(=O)[C@H](CCCCN)NC(C)=O)C(=O)N[C@@H](CC(C)C)C(=O)N[C@@H](CCCCN)C(=O)N[C@@H](Cc1ccc(O)cc1)C(=O)N[C@@H](CC(C)C)C(N)=O [BP374, Ac-KKLFKKK(COC5H11)LKYL-NH2]	6.2 to 12.5	6.2 to 12.5	3.1 to 6.2	3.1 to 6.2	6.2 to 12.5	3.1 to 6.2
CCCCCC(=O)NCCCC[C@H](NC(=O)[C@H](Cc1ccc(O)cc1)NC(=O)[C@H](CCCCN)NC(=O)[C@H](CC(C)C)NC(=O)[C@@H](NC(=O)[C@H](CCCCN)NC(=O)[C@H](CCCCN)NC(=O)[C@H](Cc1ccccc1)NC(=O)[C@H](CC(C)C)NC(=O)[C@H](CCCCN)NC(=O)[C@H](CCCCN)NC(C)=O)[C@@H](C)CC)C(N)=O [BP378, Ac-KKLFKKILKYK(COC5H11)-NH2]	3.1 to 6.2	3.1 to 6.2	3.1 to 6.2	3.1 to 6.2	6.2 to 12.5	3.1 to 6.2
CCCC(=O)NCCCC[C@H](NC(=O)[C@H](CCCCN)NC(C)=O)C(=O)N[C@@H](CC(C)C)C(=O)N[C@@H](Cc1ccccc1)C(=O)N[C@@H](CCCCN)C(=O)N[C@@H](CCCCN)C(=O)N[C@H](C(=O)N[C@@H](CC(C)C)C(=O)N[C@@H](CCCCN)C(=O)N[C@@H](Cc1ccc(O)cc1)C(=O)N[C@@H](CC(C)C)C(N)=O)[C@@H](C)CC [BP381, Ac-KK(COC3H7)LFKKILKYL-NH2]	3.1 to 6.2	1.6 to 3.1	3.1 to 6.2	3.1 to 6.2	3.1 to 6.2	1.6 to 3.1
CCCC(=O)NCCCC[C@H](NC(=O)[C@H](CCCCN)NC(=O)[C@H](Cc1ccccc1)NC(=O)[C@H](CC(C)C)NC(=O)[C@H](CCCCN)NC(=O)[C@H](CCCCN)NC(C)=O)C(=O)N[C@H](C(=O)N[C@@H](CC(C)C)C(=O)N[C@@H](CCCCN)C(=O)N[C@@H](Cc1ccc(O)cc1)C(=O)N[C@@H](CC(C)C)C(N)=O)[C@@H](C)CC [BP385, Ac-KKLFKK(COC3H7)ILKYL-NH2]	0.8 to 1.6	0.8 to 1.6	6.2 to 12.5	6.2 to 12.5	6.2 to 12.5	1.6 to 3.1
CCCC(=O)NCCCC[C@H](NC(=O)[C@@H](NC(=O)[C@H](CCCCN)NC(=O)[C@H](CCCCN)NC(=O)[C@H](Cc1ccccc1)NC(=O)[C@H](CC(C)C)NC(=O)[C@H](CCCCN)NC(=O)[C@H](CCCCN)NC(C)=O)[C@@H](C)CC)C(=O)N[C@@H](CCCCN)C(=O)N[C@@H](Cc1ccc(O)cc1)C(=O)N[C@@H](CC(C)C)C(N)=O [BP387, Ac-KKLFKKIK(COC3H7)KYL-NH2]	3.1 to 6.2	1.6 to 3.1	3.1 to 6.2	3.1 to 6.2	3.1 to 6.2	1.6 to 3.1
CCCC(=O)NCCCC[C@H](NC(=O)[C@H](CCCCN)NC(=O)[C@H](CC(C)C)NC(=O)[C@@H](NC(=O)[C@H](CCCCN)NC(=O)[C@H](CCCCN)NC(=O)[C@H](Cc1ccccc1)NC(=O)[C@H](CC(C)C)NC(=O)[C@H](CCCCN)NC(=O)[C@H](CCCCN)NC(C)=O)[C@@H](C)CC)C(=O)N[C@@H](CC(C)C)C(N)=O [BP389, Ac-KKLFKKILKK(COC3H7)L-NH2]	0.8 to 1.6	0.8 to 1.6	3.1 to 6.2	3.1 to 6.2	6.2 to 12.5	1.6 to 3.1
CCCC(=O)NCCCC[C@H](NC(=O)[C@H](Cc1ccc(O)cc1)NC(=O)[C@H](CCCCN)NC(=O)[C@H](CC(C)C)NC(=O)[C@@H](NC(=O)[C@H](CCCCN)NC(=O)[C@H](CCCCN)NC(=O)[C@H](Cc1ccccc1)NC(=O)[C@H](CC(C)C)NC(=O)[C@H](CCCCN)NC(=O)[C@H](CCCCN)NC(C)=O)[C@@H](C)CC)C(N)=O [BP390, Ac-KKLFKKILKYK(COC3H7)-NH2]	6.2 to 12.5	3.1 to 6.2	6.2 to 12.5	3.1 to 6.2	6.2 to 12.5	3.1 to 6.2
CCCCCCCCCCCC(=O)NCCCC[C@H](NC(=O)[C@H](CC(C)C)NC(=O)[C@@H](NC(=O)[C@H](CCCCN)NC(=O)[C@H](CCCCN)NC(=O)[C@H](Cc1ccccc1)NC(=O)[C@H](CC(C)C)NC(=O)[C@H](CCCCN)NC(=O)[C@H](CCCCN)NC(C)=O)[C@@H](C)CC)C(=O)N[C@@H](Cc1ccc(O)cc1)C(=O)N[C@@H](CC(C)C)C(N)=O [BP400, Ac-KKLFKKILK(COC11H23)YL-NH2]	1.6 to 3.1	1.6 to 3.1	>25	>25	>25	3.1 to 6.2
